Results published in patent US20240360175A1, “PEPTIDE DERIVATIVES AND RELATED USES AS OREXIN AGONISTS” (Centessa Pharmaceuticals (UK) Limited, priority 2021, published 2024).
Numbered stars: 1 amine (or outer) side, 2 acyl side, 3 side chain; on linkers, the order of the positions; unused ones are H or OH. Square brackets hold non-standard residues; d marks the D form. Peptide text beside a SMILES is read from it. * marks the point of attachment. X8 = CCCCCC[C@H](NC(=O)[C@@H](NC[C@H](CC(C)C)N*)[C@@H](C)O)C(N)=O; X7 = O=C([C@@H](N[*:1])c1cccc2ccccc12)[*:2]; hArg(Et2) = CCN=C(NCC)NCCCC[C@H](N)C(=O)O; PEG8 = NCCOCCOCCOCCOCCOCCOCCOCCOCCC(=O)O; X1 = O=C(CN(CCc1ccc2ccccc2c1)[*:1])[*:2]; Phg(4-OMe) = COc1ccc([C@H](N)C(=O)O)cc1; X4 = CN(C)CCOCCOCCOCCOCCOCCOCCC(=O)*; Gly(NCH2CH2Ph) = O=C(O)CNCCc1ccccc1; PEG6 = NCCOCCOCCOCCOCCOCCOCCC(=O)O; Hyp = O=C(O)[C@@H]1C[C@@H](O)CN1; Hpg = N[C@H](C(=O)O)c1ccc(O)cc1; NMeN = CN[C@@H](CC(N)=O)C(=O)O; Aoc(2) = CCCCCC[C@H](N)C(=O)O; PEG4 = NCCOCCOCCOCCOCCC(=O)O; Phg = N[C@H](C(=O)O)c1ccccc1; Cbz = O=C(OCc1ccccc1)*

What was measured:
[1] = target: T1, human orexin type 2 receptor (hOX2R) (Homo sapiens, UniProt O43614); test: Measurement of orexin type 2 receptor agonist activity (FLIPR TETRA intracellular Ca2+ fluorescence); assay type: cell-based; settings: CHO cells expressing hOX2R; agonist activity, Ca2+ fluorescence; read-out: hOX2 pEC50 (converted)
T1 construct: expressed in transfected cells
T1 sequence (O43614 1-444): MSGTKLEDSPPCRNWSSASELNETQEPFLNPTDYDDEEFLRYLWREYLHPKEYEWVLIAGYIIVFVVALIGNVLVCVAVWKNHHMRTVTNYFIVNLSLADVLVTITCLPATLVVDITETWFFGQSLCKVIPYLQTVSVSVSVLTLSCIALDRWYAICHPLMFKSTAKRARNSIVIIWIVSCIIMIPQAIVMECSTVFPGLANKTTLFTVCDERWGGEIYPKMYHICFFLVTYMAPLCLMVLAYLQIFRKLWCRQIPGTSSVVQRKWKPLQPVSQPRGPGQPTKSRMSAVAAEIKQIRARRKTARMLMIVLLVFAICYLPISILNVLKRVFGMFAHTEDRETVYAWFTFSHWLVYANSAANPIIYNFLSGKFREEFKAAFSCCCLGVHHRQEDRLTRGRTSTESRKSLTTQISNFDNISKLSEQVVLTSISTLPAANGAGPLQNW
Method: (§1) Stable cell line generation. Obtainment of cells stably expressing either human orexin type 2 or human orexin type 1 receptor: to obtain a stable cell line the Orexin receptor cDNA was inserted into pcDNA3.1(+) plasmid vector and clones identified by G418 drug resistance selection. […] A single clone for OX2R—CHO and OX1R—CHO were grown in bulk and frozen to generate a cell bank for routine screening.
(§2) Measurement of orexin type 2 receptor agonist activity. Chinese hamster ovary (CHO) cells expressing human orexin type 2 receptor (hOX2R) seeded in each well of 384 well black clear bottom plates (BD Flacon) at 10,000 cells per well and cultured for 24 h in an Ham's F12 (Gibco) medium containing 10% fetal calf serum (Sigma Aldrich) under the conditions of 37° C., 5% CO2. After removal of the medium, 50 μL of assay buffer 1 (0.1% bovine serum albumin (Sigma Aldrich), 20 mM HEPES (Molecular Dimensions), […] probenecid (Sigma Aldrich), 1× Calcium 5 dye (Molecular Devices) in Hank's balanced salt solution (Invitrogen)) was added, and the cells were incubated for 60 min under the conditions of 37° C., 5% CO2. A test peptide was dissolved in dimethyl sulfoxide (Sigma Aldrich) to 1 mM, and then diluted with assay buffer 2 (20 mM HEPES, Hank's balanced salt solution, 0.1% bovine serum albumin). For the reaction, a test peptide solution (10 μl) was added using Fluorescent Imaging Plate Reader TETRA (FLIPR TETRA: manufactured by Molecular Devices), a fluorescence value (excitation wavelength 488 nm, measurement wavelength 570 nm) of each well was measured every one second for 2 min, and the agonist activity was determined using the area of the fluorescence value as an indicator of intracellular Ca^2+ concentration. The agonist activity of the test peptide was calculated assuming that the fluorescence value of the well added with only the dilution buffer was 0% and the fluorescence value of the well added with 10 nM human orexin A (Tocris) buffer was 100%. As used herein, Emax indicates the value at 1 μM concentration when orexin A is converted to a full agonist (maximum value of agonist activity: 100%).

[2] = target: T2, human orexin type 1 receptor (hOX1R) (Homo sapiens, UniProt O43613); test: Measurement of orexin type 1 receptor agonist activity (FLIPR TETRA intracellular Ca2+ fluorescence); assay type: cell-based; settings: CHO cells expressing hOX1R; agonist activity, Ca2+ fluorescence; read-out: hOX1 pEC50 (converted)
T2 construct: expressed in transfected cells
T2 sequence (O43613 1-425): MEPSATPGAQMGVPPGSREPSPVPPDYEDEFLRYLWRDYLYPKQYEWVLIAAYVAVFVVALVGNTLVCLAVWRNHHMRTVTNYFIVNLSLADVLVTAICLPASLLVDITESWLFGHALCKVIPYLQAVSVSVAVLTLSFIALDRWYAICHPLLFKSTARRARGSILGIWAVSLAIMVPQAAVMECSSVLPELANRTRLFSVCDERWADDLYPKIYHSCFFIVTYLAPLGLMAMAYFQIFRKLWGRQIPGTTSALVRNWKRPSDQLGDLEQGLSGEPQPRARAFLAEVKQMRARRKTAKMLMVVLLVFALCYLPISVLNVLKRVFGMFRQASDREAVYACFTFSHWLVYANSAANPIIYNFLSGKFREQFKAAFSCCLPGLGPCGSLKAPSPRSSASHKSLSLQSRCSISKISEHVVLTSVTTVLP
Method: as §1
as §2, with “type 1” for “type 2”, “receptor (hOX1R) were” for “receptor (hOX2R)”

SMILES	EC50 [1]	EC50 [2]
CCCCCC[C@H](NC(=O)[C@@H](NC[C@H](CC(C)C)NC(=O)[C@@H](NC(=O)CNC(=O)[C@@H](NC(=O)[C@H](C)NC(=O)[C@@H]1C[C@@H](O)CN1C(=O)[C@H](CC(N)=O)NC(=O)CN(CCc1ccccc1)C(=O)CCOCCOCCOCCOCCOCCOCCN)c1ccccc1)[C@@H](C)CC)[C@@H](C)O)C(N)=O [Peptide 1] (H-[PEG6][Gly(NCH2CH2Ph)]N[Hyp]A[Phg]GI-X8)	< 0.1 nM	> 10 nM
CCCCCC[C@H](NC(=O)[C@@H](NC(=O)[C@H](CC(C)C)NC(=O)[C@@H](NC(=O)CNC(=O)[C@@H](NC(=O)[C@H](C)NC(=O)[C@@H]1C[C@@H](O)CN1C(=O)[C@H](CC(N)=O)NC(=O)CN(CCc1ccccc1)C(=O)[C@H](CCCNC(=N)N)NC(=O)CCOCCOCCOCCOCCOCCOCCN(C)C)c1ccccc1)[C@@H](C)CC)[C@@H](C)O)C(N)=O [Peptide 2] (X4-R[Gly(NCH2CH2Ph)]N[Hyp]A[Phg]GILT[Aoc(2)]-NH2)	< 0.1 nM	1 to 10 nM
CCCCCC[C@H](NC(=O)[C@@H](NC(=O)[C@H](CC(C)C)NC(=O)[C@@H](NC(=O)CNC(=O)[C@@H](NC(=O)[C@H](C)NC(=O)[C@@H]1C[C@@H](O)CN1C(=O)[C@H](CC(N)=O)NC(=O)CN(CCc1ccccc1)C(=O)[C@H](CCCNC(=N)N)NC(=O)CCOCCOCCOCCOCCOCCOCCN)c1ccccc1)[C@@H](C)CC)[C@@H](C)O)C(N)=O [Peptide 3] (H-[PEG6]R[Gly(NCH2CH2Ph)]N[Hyp]A[Phg]GILT[Aoc(2)]-NH2)	< 0.1 nM	> 10 nM
CCCCCC[C@H](NC(=O)[C@@H](NC(=O)[C@H](CC(C)C)NC(=O)[C@@H](NC(=O)CNC(=O)[C@@H](NC(=O)[C@H](C)NC(=O)[C@@H]1C[C@@H](O)CN1C(=O)[C@H](CC(N)=O)NC(=O)CN(CCc1ccccc1)C(=O)[C@@H](N)CCCCN/C(=N/CC)NCC)c1ccccc1)[C@@H](C)CC)[C@@H](C)O)C(N)=O [Peptide 4] (H-[hArg(Et2)][Gly(NCH2CH2Ph)]N[Hyp]A[Phg]GILT[Aoc(2)]-NH2)	< 0.1 nM	> 10 nM
CCCCCC[C@H](NC(=O)[C@@H](NC(=O)[C@H](CC(C)C)NC(=O)[C@@H](NC(=O)CNC(=O)[C@@H](NC(=O)[C@H](C)NC(=O)[C@@H]1C[C@@H](O)CN1C(=O)[C@H](CC(N)=O)NC(=O)CN(CCc1ccccc1)C(=O)[C@H](CCCNC(=N)N)NC(=O)CCOCCOCCOCCOCCN)c1ccccc1)[C@@H](C)CC)[C@@H](C)O)C(N)=O [Peptide 5] (H-[PEG4]R[Gly(NCH2CH2Ph)]N[Hyp]A[Phg]GILT[Aoc(2)]-NH2)	< 0.1 nM	> 10 nM
CCCCCC[C@H](NC(=O)[C@@H](NC(=O)[C@H](CC(C)C)NC(=O)[C@@H](NC(=O)CNC(=O)[C@@H](NC(=O)[C@H](C)NC(=O)[C@@H]1C[C@@H](O)CN1C(=O)[C@H](CC(N)=O)N(C)C(=O)CN(CCc1ccccc1)C(=O)[C@H](CCCNC(=N)N)NC(=O)CCOCCOCCOCCOCCOCCOCCN)c1ccccc1)[C@@H](C)CC)[C@@H](C)O)C(N)=O [Peptide 6] (H-[PEG6]R[Gly(NCH2CH2Ph)][NMeN][Hyp]A[Phg]GILT[Aoc(2)]-NH2)	< 0.1 nM	> 10 nM
CCCCCC[C@H](NC(=O)[C@@H](NC(=O)[C@H](CC(C)C)NC(=O)[C@@H](NC(=O)CNC(=O)[C@@H](NC(=O)[C@H](C)NC(=O)[C@@H]1C[C@@H](O)CN1C(=O)[C@H](CC(N)=O)NC(=O)CN(CCc1ccccc1)C(=O)[C@@H](N)CCCCN/C(=N/CC)NCC)c1ccc(O)cc1)[C@@H](C)CC)[C@@H](C)O)C(N)=O [Peptide 7] (H-[hArg(Et2)][Gly(NCH2CH2Ph)]N[Hyp]A[Hpg]GILT[Aoc(2)]-NH2)	< 0.1 nM	> 10 nM
CCCCCC[C@H](NC(=O)[C@@H](NC(=O)[C@H](CC(C)C)NC(=O)[C@@H](NC(=O)CNC(=O)[C@@H](NC(=O)[C@H](C)NC(=O)[C@@H]1C[C@@H](O)CN1C(=O)[C@H](CC(N)=O)NC(=O)CN(CCc1ccccc1)C(=O)[C@H](CCCNC(=N)N)NC(=O)CCOCCOCCOCCOCCOCCOCCOCCOCCN)c1ccccc1)[C@@H](C)CC)[C@@H](C)O)C(N)=O [Peptide 8] (H-[PEG8]R[Gly(NCH2CH2Ph)]N[Hyp]A[Phg]GILT[Aoc(2)]-NH2)	< 0.1 nM	> 10 nM
CCCCCC[C@H](NC(=O)[C@@H](NC(=O)[C@H](CC(C)C)NC(=O)[C@@H](NC(=O)CNC(=O)[C@@H](NC(=O)[C@H](C)NC(=O)[C@@H]1C[C@@H](O)CN1C(=O)[C@H](CC(N)=O)NC(=O)CN(CCc1ccccc1)C(=O)[C@@H](N)CCCCNC(=NCC)NCC)c1cccc2ccccc12)[C@@H](C)CC)[C@@H](C)O)C(N)=O [Peptide 9] (H-[hArg(Et2)][Gly(NCH2CH2Ph)]N[Hyp]A[X7]GILT[Aoc(2)]-NH2; N-terminus assumed)	< 0.1 nM	> 10 nM
CCCCCC[C@H](NC(=O)[C@@H](NC(=O)[C@H](CC(C)C)NC(=O)[C@@H](NC(=O)CNC(=O)[C@@H](NC(=O)[C@H](C)NC(=O)[C@@H]1C[C@@H](O)CN1C(=O)[C@H](CC(N)=O)NC(=O)CN(CCc1ccccc1)C(=O)[C@H](CCCCNC(=NCC)NCC)NC(=O)OCc1ccccc1)c1ccccc1)[C@@H](C)CC)[C@@H](C)O)C(N)=O [Peptide 10] (Cbz-[hArg(Et2)][Gly(NCH2CH2Ph)]N[Hyp]A[Phg]GILT[Aoc(2)]-NH2)	< 0.1 nM	> 10 nM
CCCCCC[C@H](NC(=O)[C@@H](NC(=O)[C@H](CC(C)C)NC(=O)[C@@H](NC(=O)CNC(=O)[C@@H](NC(=O)[C@H](C)NC(=O)[C@H](Cc1c[nH]cn1)NC(=O)[C@H](CC(N)=O)NC(=O)CN(CCc1ccc2ccccc2c1)C(=O)[C@@H](N)CCCCNC(=NCC)NCC)c1ccccc1)[C@@H](C)CC)[C@@H](C)O)C(N)=O [Peptide 11] (H-[hArg(Et2)][X1]NHA[Phg]GILT[Aoc(2)]-NH2; N-terminus assumed)	< 0.1 nM	1 to 10 nM
CCCCCC[C@H](NC(=O)[C@@H](NC(=O)[C@H](CC(C)C)NC(=O)[C@@H](NC(=O)CNC(=O)[C@@H](NC(=O)[C@H](C)NC(=O)[C@H](Cc1c[nH]cn1)NC(=O)[C@H](CC(N)=O)NC(=O)CN(CCc1ccccc1)C(=O)[C@@H](N)CCCCN/C(=N/CC)NCC)c1ccc(OC)cc1)[C@@H](C)CC)[C@@H](C)O)C(N)=O [Peptide 12] (H-[hArg(Et2)][Gly(NCH2CH2Ph)]NHA[Phg(4-OMe)]GILT[Aoc(2)]-NH2)	< 0.1 nM	> 10 nM
